Experimental data from patent publication US20220323443A1, “COMBINATION THERAPY FOR CANCER TREATMENT” (TAKEDA PHARMACEUTICAL COMPANY LIMITED, priority 2019, published 2022).
Where a name gives a salt, the structure may show the parent alone. Read-outs that look alike come from different tables or passages of the source.

Columns and labels:
Assay in all cases: In vitro combination study with Compound 1, Cell Titer-Glo (ATP) cell viability, 72 h;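 as to Call, anti-proliferative effect of combination with Compound 1, A549: Ten-by-ten dose matrices of the two agents in duplicate, compounds added 16 h post-plating, activity relative to DMSO vehicle wells, call reflects synergy evaluation from luminescence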;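 as to Call, anti-proliferative effect of combination with Compound 1, COLO205: Ten-by-ten dose matrices of both agents in duplicate plus single-agent dilutions, luminescent ATP read-out, percent activity per well relative to DMSO vehicle wells, synergy call from these matrices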;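 as to Call, anti-proliferative effect of combination with Compound 1, H460: Ten-by-ten dose matrices of both drugs alongside single-agent dilutions, luminescence read 72 hours after compound addition, percent activity per well versus vehicle (DMSO) plate controls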;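 as to Call, anti-proliferative effect of combination with Compound 1, HCT116: combination call from 10×10 dose matrices in duplicate, graded by synergy, with percent activity per well relative to DMSO vehicle controls on the same plate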;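 as to Call, anti-proliferative effect of combination with Compound 1, SW620: Ten-by-ten dose matrices of both drugs in 384-well plates, luminescent ATP read-out, synergy evaluated against single-agent and DMSO vehicle controls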
[1] = test system: A549 cancer cells; type: cell-based;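 also: Ten-by-ten dose matrices of the two agents in duplicate, compounds added 16 h post-plating, activity relative to DMSO vehicle wells, call reflects synergy evaluation from luminescence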
Method: (§1) Each combination pair was evaluated in an individual 384-well plate which contained variable doses of both compounds as single agents, as well as two, ten-by-ten matrices (in duplicate) that contained mixtures of the two test compounds. In brief, compounds were added to the cell test plates 16 hours after cell plating and then assessed for viability 72 hours later. Continuous cultures of tumor cells were maintained under standard cell culturing conditions (i.e. in a humidified chamber set at 37° C., containing atmosphere 5% carbon dioxide). […] Seventy-two hours after compound addition, ATP levels were measured to assess cell viability. Plating densities were chosen to ensure optimal linear growth over the 72 hour period.
(§2) Compound dilution and compound delivery to the assay plates were done on HighRes Robotic System (HighRes Biosolutions, Woburn, Mass., USA) with Echo™ Liquid Handler (Labcyte, Sunnyvale, Calif., USA). […] Next, these were used for compound transfer into cell assay plates. All wells were back-filled to give a constant percentage of DMSO.
(§3) The final DMSO concentration was held constant in all wells across the plate and was maintained at less than 0.5%. […] Cells treated with vehicle (DMSO) in two rows, or single compound serial dilutions in one plate columns/row served as the untreated control and single compound controls, respectively.
(§4) Compound activity in A549, COLO205, H460, HCT116, SW48, SW620 cancer cell lines was assessed using Cell Titer-Glo® (Promega [Madison, Wis., USA]). After 72 hours incubation, the plates were treated as per package insert protocol for the Promega Luminescence ATP Detection Systems. Briefly, 25 μL of cell lysis/substrate solution (provided in kit form) was added to each well and the plate was incubated at room temperature for 10 minutes. Luminescence was measured using a PHERAstar multi-label counter (BMG Labtech [Ortenberg, Germany]) or LEADseeker (GE Healthcare Life Sciences [Piscataway, N.J., USA]).
(§5) Numerical luminescence values were analyzed to generate EC50 curves and evaluate synergy. Raw Data reader files were uploaded along with automation workfiles that defined the plate and well contents. Percent activities were calculated for each well versus plate controls.
(§6) Each plate representing a single drug combination was analyzed separately. First, the viability measurements were normalized by scaling the data so that the median of the negative controls was 0 and the median of the positive controls was 100.
(§7) For the combination analysis, a response surface model was used to describe the relationship between the normalized viability and the drug concentrations. The data were fit to the model by minimizing the residual sum of squares. Based on the fitted response surface, plots of constant viability, called isobolograms, were produced.
(§8) The Combination Index and Nonlinear Blending were used as measures of drug synergy. To calculate Combination Index the 50% isobologram (which is the dose contour that has 50% viability) was used. […] A standard procedure was created to produce a call in order to characterize the viability effects for each combination (synergy, additivity, subadditivity, or antagonism). If the Combination Index existed then these measures were used to make the call.

[2] = test system: COLO205 cancer cells; type: cell-based, human;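 also: Ten-by-ten dose matrices of both agents in duplicate plus single-agent dilutions, luminescent ATP read-out, percent activity per well relative to DMSO vehicle wells, synergy call from these matrices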
Method: as §1, §2, §3, §4, §5, §6, §7, §8

[3] = test system: H460 cancer cells; type: cell-based;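 also: Ten-by-ten dose matrices of both drugs alongside single-agent dilutions, luminescence read 72 hours after compound addition, percent activity per well versus vehicle (DMSO) plate controls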
Method: as §1, §2, §3, §4, §5, §6, §7, §8

[4] = test system: HCT116 cancer cells; type: cell-based;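 also: combination call from 10×10 dose matrices in duplicate, graded by synergy, with percent activity per well relative to DMSO vehicle controls on the same plate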
Method: as §1, §2, §3, §4, §5, §6, §7, §8

[5] = test system: SW620 cancer cells; type: cell-based;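 also: Ten-by-ten dose matrices of both drugs in 384-well plates, luminescent ATP read-out, synergy evaluated against single-agent and DMSO vehicle controls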
[6] = DNA damaging agent combined with Compound 1, 72 h
[7] = Table 5 drug combined with Compound 1, 72 h

Compound	Call, anti-proliferative effect of combination with Compound 1, A549 [1, 7]	Call, anti-proliferative effect of combination with Compound 1, COLO205 [2, 7]	Call, anti-proliferative effect of combination with Compound 1, H460 [3, 7]	Call, anti-proliferative effect of combination with Compound 1, HCT116 [4, 7]	Call, anti-proliferative effect of combination with Compound 1, SW620 [5, 7]	other results
Cc1cc2c(C(C)C)c(O)c(O)c(C=O)c2c(O)c1-c1c(C)cc2c(C(C)C)c(O)c(O)c(C=O)c2c1O [AT101]	–	–	–	–	–	Call, anti-proliferative effect of combination with Compound 1, A549 [1]: Additivity (key: Inconclusive: Any; Additivity: 0.7 to 1.3; Synergy: 0 to 0.7; Subadditivity: 1.3 to 2; Antagonism: >2); Call, anti-proliferative effect of combination with Compound 1, COLO205 [2]: Additivity (key: Inconclusive: Any; Additivity: 0.7 to 1.3; Synergy: 0 to 0.7; Subadditivity: 1.3 to 2; Antagonism: >2); Call, anti-proliferative effect of combination with Compound 1, H460 [3]: Additivity (key: Inconclusive: Any; Additivity: 0.7 to 1.3; Synergy: 0 to 0.7; Subadditivity: 1.3 to 2; Antagonism: >2); Call, anti-proliferative effect of combination with Compound 1, HCT116 [4]: Additivity (key: Inconclusive: Any; Additivity: 0.7 to 1.3; Synergy: 0 to 0.7; Subadditivity: 1.3 to 2; Antagonism: >2); Call, anti-proliferative effect of combination with Compound 1, SW620 [5]: Additivity (key: Inconclusive: Any; Additivity: 0.7 to 1.3; Synergy: 0 to 0.7; Subadditivity: 1.3 to 2; Antagonism: >2)
CN(C)/N=N/c1[nH]cnc1C(N)=O [Dacarbazine]	–	–	–	–	–	Call, anti-proliferative effect of combination with Compound 1, HCT116 [4, 6]: Additivity (0.7 to 1.3)
CCCS(=O)(=O)Nc1ccc(F)c(C(=O)c2c[nH]c3ncc(-c4ccc(Cl)cc4)cc23)c1F [PLX4032]	Additivity (0.7 to 1.3)	Additivity (0.7 to 1.3)	Additivity (0.7 to 1.3)	Additivity (0.7 to 1.3)	–	–
C[C@H]1CCC/C=C/[C@@H]2C[C@H](O)C[C@H]2[C@H](O)/C=C/C(=O)O1 [Brefeldin A]	–	–	–	–	–	Call, anti-proliferative effect of combination with Compound 1, A549 [1, 6]: Additivity (0.7 to 1.3); Call, anti-proliferative effect of combination with Compound 1, COLO205 [2, 6]: Subadditivity (1.3 to 2); Call, anti-proliferative effect of combination with Compound 1, H460 [3, 6]: Additivity (0.7 to 1.3); Call, anti-proliferative effect of combination with Compound 1, HCT116 [4, 6]: Additivity (0.7 to 1.3); Call, anti-proliferative effect of combination with Compound 1, SW620 [5, 6]: Additivity (0.7 to 1.3)
CS(=O)(=O)N1CCN(Cc2cc3nc(-c4cccc5[nH]ncc45)nc(N4CCOCC4)c3s2)CC1 [GDC-0941]	Additivity (0.7 to 1.3)	Additivity (0.7 to 1.3)	Synergy (0 to 0.7)	Synergy (0 to 0.7)	Additivity (0.7 to 1.3)	–
Nc1cc(C(F)(F)F)c(-c2cc(N3CCOCC3)nc(N3CCOCC3)n2)cn1 [BKM-120]	Additivity (0.7 to 1.3)	Additivity (0.7 to 1.3)	Additivity (0.7 to 1.3)	Additivity (0.7 to 1.3)	Additivity (0.7 to 1.3)	–
CN1CC[C@H](c2c(O)cc(O)c3c(=O)cc(-c4ccccc4Cl)oc23)[C@H](O)C1 [Alvocidib]	Additivity (0.7 to 1.3)	Additivity (0.7 to 1.3)	–	Additivity (0.7 to 1.3)	Subadditivity (1.3 to 2)	–
CO/C1=C\C(C)=C\[C@@H](C)[C@@H](O)[C@@H](C)C/C(C)=C/C=C/[C@H](OC)[C@@H]([C@@H](C)[C@@H](O)[C@H](C)[C@@]2(O)C[C@@H](O)[C@H](C)[C@@H](C(C)C)O2)OC1=O [Bafilomycin A]	–	Subadditivity (1.3 to 2)	Additivity (0.7 to 1.3)	Additivity (0.7 to 1.3)	Additivity (0.7 to 1.3)	Call, anti-proliferative effect of combination with Compound 1, A549 [1]: Additivity (key: Inconclusive: Any; Additivity: 0.7 to 1.3; Synergy: 0 to 0.7; Subadditivity: 1.3 to 2; Antagonism: >2)
Nc1ccn([C@@H]2O[C@H](CO)[C@@H](O)[C@@H]2O)c(=O)n1 [Cytarabine]	–	–	–	–	–	Call, anti-proliferative effect of combination with Compound 1, A549 [1, 6]: Additivity (0.7 to 1.3); Call, anti-proliferative effect of combination with Compound 1, COLO205 [2, 6]: Synergy (0 to 0.7); Call, anti-proliferative effect of combination with Compound 1, H460 [3, 6]: Additivity (0.7 to 1.3); Call, anti-proliferative effect of combination with Compound 1, HCT116 [4, 6]: Additivity (0.7 to 1.3); Call, anti-proliferative effect of combination with Compound 1, SW620 [5, 6]: Synergy (0 to 0.7)
C/C=C(/C)C(=O)O[C@H]1C(C)=C2[C@H]([C@@H]1OC(=O)CCCCCCC)[C@@](C)(OC(C)=O)C[C@H](OC(=O)CCC)[C@@]1(O)[C@H]2OC(=O)[C@@]1(C)O [Thapsigargin]	Additivity (0.7 to 1.3)	Additivity (0.7 to 1.3)	Additivity (0.7 to 1.3)	Additivity (0.7 to 1.3)	Additivity (0.7 to 1.3)	–
CN1CC[C@H](c2c(O)cc(O)c3c(=O)cc(-c4ccccc4Cl)oc23)[C@H](O)C1 [Flavopiridol]	–	–	Additivity (0.7 to 1.3)	–	–	–
S=c1nc[nH]c2nc[nH]c12 [Mercaptopurine]	–	–	–	–	–	Call, anti-proliferative effect of combination with Compound 1, COLO205 [2, 6]: Additivity (0.7 to 1.3); Call, anti-proliferative effect of combination with Compound 1, H460 [3, 6]: Additivity (0.7 to 1.3); Call, anti-proliferative effect of combination with Compound 1, HCT116 [4, 6]: Additivity (0.7 to 1.3); Call, anti-proliferative effect of combination with Compound 1, SW620 [5, 6]: Subadditivity (1.3 to 2)
Nc1nc(OCc2ccccc2)c2nc[nH]c2n1 [O6-Benzylguanine]	–	–	–	–	–	Call, anti-proliferative effect of combination with Compound 1, COLO205 [2, 6]: Additivity (0.7 to 1.3)
CCNC(=O)c1noc(-c2cc(C(C)C)c(O)cc2O)c1-c1ccc(CN2CCOCC2)cc1 [AUY-922]	Additivity (0.7 to 1.3)	Additivity (0.7 to 1.3)	–	Additivity (0.7 to 1.3)	Additivity (0.7 to 1.3)	–
CO[C@H]1/C=C\C=C(/C)C(=O)NC2=CC(=O)C(NCCN(C)C)=C(C[C@@H](C)C[C@H](OC)[C@H](O)[C@@H](C)/C=C(\C)[C@@H]1OC(N)=O)C2=O [Compound 17-DMAG]	Subadditivity (1.3 to 2)	Additivity (0.7 to 1.3)	Additivity (0.7 to 1.3)	Additivity (0.7 to 1.3)	Additivity (0.7 to 1.3)	–
C[C@@]1(CO)[C@H](O)CC[C@@]2(C)[C@H]1CC[C@H]1C[C@@H]3C[C@@]12CC[C@]3(O)COC(=O)CN.Cl [Aphidicolin glycinate]	–	–	–	–	–	Call, anti-proliferative effect of combination with Compound 1, A549 [1]: Additivity (key: Inconclusive: Any; Additivity: 0.7 to 1.3; Synergy: 0 to 0.7; Subadditivity: 1.3 to 2; Antagonism: >2); Call, anti-proliferative effect of combination with Compound 1, COLO205 [2, 6]: Additivity (0.7 to 1.3); Call, anti-proliferative effect of combination with Compound 1, H460 [3, 6]: Additivity (0.7 to 1.3); Call, anti-proliferative effect of combination with Compound 1, HCT116 [4, 6]: Synergy (0 to 0.7); Call, anti-proliferative effect of combination with Compound 1, SW620 [5, 6]: Additivity (0.7 to 1.3)
CC[C@]1(O)C[C@H]2CN(CCc3c([nH]c4ccccc34)[C@@](C(=O)OC)(c3cc4c(cc3OC)N(C=O)[C@H]3[C@@](O)(C(=O)OC)[C@H](OC(C)=O)[C@]5(CC)C=CCN6CC[C@]43[C@@H]65)C2)C1 [Vincristine sulfate]	Subadditivity (1.3 to 2)	Additivity (0.7 to 1.3)	Additivity (0.7 to 1.3)	Additivity (0.7 to 1.3)	Subadditivity (1.3 to 2)	–
Cc1[nH]c2ccccc2c1CCNCc1ccc(/C=C/C(=O)NO)cc1 [Panobinostat]	Additivity (0.7 to 1.3)	Subadditivity (1.3 to 2)	Additivity (0.7 to 1.3)	Additivity (0.7 to 1.3)	Additivity (0.7 to 1.3)	–
Tunicamycin	–	Additivity (0.7 to 1.3)	Additivity (0.7 to 1.3)	Synergy (0 to 0.7)	Additivity (0.7 to 1.3)	–
CO[C@@H]1[C@H](N(C)C(=O)c2ccccc2)C[C@H]2O[C@]1(C)n1c3ccccc3c3c4c(c5c6ccccc6n2c5c31)C(=O)NC4 [PKC412]	–	Subadditivity (1.3 to 2)	Antagonism (>2)	_Additivity	Additivity (0.7 to 1.3)	–
CS(=O)(=O)OCCCCOS(C)(=O)=O [Busulfan]	–	–	–	–	–	Call, anti-proliferative effect of combination with Compound 1, COLO205 [2, 6]: Synergy (0 to 0.7)
